We go through one molecule from US7192977B2, “Benz-indole and benzo-quinoline derivatives as prodrugs for tumor treatment” (School of Pharmacy, priority 2001, dated 2007).

For the series, the system named is Chinese Hamster Ovary (CHO) cell. Put plainly: MTT cytotoxicity in CHO cells of the test compound with and without activation by NADPH-supplemented rat liver microsomes. Conditions: for IC50: Cricetulus griseus, CHO, cells exposed 24 hours, MTT, mean+sd for three experiments. The series is classed as cell-based. The procedure: Test compound activation by CYP enzymes was carried out using NADPH supplemented rat liver microsomes. Incubation mixtures comprised microsomal protein (1 mg/ml), reduced-nicotinamide adenine dinucleotide phosphate (NADPH, 10 mM) and phosphate buffer (pH7.4, 100 mM). Test compound (0.01–100 μM final concentration) in DMSO (20 μl) was added to the microsomal incubation mixtures (0.5 ml) and incubated for 60 min at 37 C. Control incubates contained test compound and microsomal incubation mixture terminated at 0 time. All incubations were terminated by addition of an equal volume of ice-cold acetonitrile and microfuged for 3 min. Aliquots of the supernatant were added to cells in culture and cytotoxicity determined as described below.
Chinese Hamster Ovary (CHO) cell were grown in MEM supplemented with 10% dialysed FBS and G418 (400 μg/ml). All cells were seeded at an initial density of 1000 cells/well in 96-well-plates, incubation at 37° C. for 24 hours. Aliquots (0.1 ml) of the test compound/microsomal/acetonitrile supernatnant was then added to the CHO cells. Cells were then incubated for 24 hours at 37° C., 5% CO2. After this time period MTT (50 μl; 2 mg/ml stock solution) was added to each well and cells were incubated for a further 4 hours. During this time period MTT, a hydrogen acceptor tetrazolium salt, is reduced to formazan dye by mitochondrial dehydrogenase of viable cells. The media was aspirated from cells and DMSO (100 μl/well) added to solubilise the coloured formazan dye. Absorbance of the formazan dye in the 96-well-plates was then determined at 550 nm. The effect of microsomal activation by the test compound on the arrest of CHO cell growth could be determined by comparing the IC50 (concentration that inhibited cell growth by 50%) with and without microsomal incubation.
Background: Liver microsomes are vesicles of endoplasmic reticulum, rich in cytochrome P450 enzymes.

Marks after values point to notes of the source that are not given here.

With `COc1ccc2[nH]c(C(=O)N3CC(CCl)c4c3ccc3ccccc43)cc2c1` (stereo not drawn) [Compound 1.8, 1-(Chloromethyl)-3-[(5-methoxyindol-2-yl)carbonyl]-1,2-dihydro-3H-benz[e]indole], the IC50 was 1500 ± 530 nM (control incubate terminated at 0 time (no microsomal activation)) and 100 nM (supernatant after 60 min incubation with NADPH fortified rat liver microsomes). Where the note is “ratio of CHO IC50 without and with microsomal activation”, the “AF (activity factor, ratio of IC50 cytotoxicity values)” value is reported as 15.0*.

For orientation: IC50 means the concentration that inhibits the measured activity by half.
